Measurements as given in PubChem BioAssay AID2060496 (Molecular Pharmacology Branch, DTP, NCI, 2025).

Test system: 276233-004-R-J1-PDC complex spheroid viability
Experiment: Anticancer human tumor 276233-004-R-J1-PDC patient-derived colon adenocarcinoma cell line growth inhibition [GQUAD]
Conditions: for IC50: curve of first compound; for viability, T/C: stronger effect = lower value
Procedure, shortened: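 Multi-cell-type spheroids of tumor cells with HUVEC and mesenchymal stem cells, treated with drug combinations. Concentrations descend in half-log steps from near clinical Cmax, or from 10 microM where Cmax is unknown; viability read-out.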

[1] = second compound 0.0316 µM, first compound 0.0316 µM
[2] = second compound 0.0316 µM, first compound 0.1 µM
[3] = second compound 0.0316 µM, first compound 0.316 µM
[4] = second compound 0.0316 µM, first compound 1 µM
[5] = second compound 0.0316 µM, first compound 3.16 µM
[6] = second compound 0.0316 µM, first compound 10 µM
[7] = second compound 0.1 µM, first compound 0.0316 µM
[8] = second compound 0.1 µM, first compound 0.1 µM
[9] = second compound 0.1 µM, first compound 0.316 µM
[10] = second compound 0.1 µM, first compound 1 µM
[11] = second compound 0.1 µM, first compound 3.16 µM
[12] = second compound 0.1 µM, first compound 10 µM
[13] = second compound 0.316 µM, first compound 0.0316 µM
[14] = second compound 0.316 µM, first compound 0.1 µM
[15] = second compound 0.316 µM, first compound 0.316 µM
[16] = second compound 0.316 µM, first compound 1 µM
[17] = second compound 0.316 µM, first compound 3.16 µM
[18] = second compound 0.316 µM, first compound 10 µM
[19] = second compound 1 µM, first compound 0.0316 µM
[20] = second compound 1 µM, first compound 0.1 µM
[21] = second compound 1 µM, first compound 0.316 µM
[22] = second compound 1 µM, first compound 1 µM
[23] = second compound 1 µM, first compound 3.16 µM
[24] = second compound 1 µM, first compound 10 µM
[25] = second compound 3.16 µM, first compound 0.0316 µM
[26] = second compound 3.16 µM, first compound 0.1 µM
[27] = second compound 3.16 µM, first compound 0.316 µM
[28] = second compound 3.16 µM, first compound 1 µM
[29] = second compound 3.16 µM, first compound 3.16 µM
[30] = second compound 3.16 µM, first compound 10 µM
[31] = second compound 10 µM, first compound 0.0316 µM
[32] = second compound 10 µM, first compound 0.1 µM
[33] = second compound 10 µM, first compound 0.316 µM
[34] = second compound 10 µM, first compound 1 µM
[35] = second compound 10 µM, first compound 3.16 µM
[36] = second compound 10 µM, first compound 10 µM
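Further: spheroids exposed to drugs for seven days.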
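Wherever viability, T/C is given: 100% = DMSO vehicle control viability.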

SMILES: COc1ccc([C@@H](O)c2cc(-c3ncnc4cc(N5CCOCC5)ccc34)c(F)cc2Cl)nn1 + Cc1cnc(CNC(=O)c2c(=O)c3ccc(N4CCCN(C)CC4)nc3n3c2sc2ccccc23)cn1
- IC50 (second compound 0.0316 µM): 8710 nM
- IC50 (second compound 0.1 µM): > 10000 nM
- IC50 (second compound 0.316 µM): 4400 nM
- IC50 (second compound 1 µM): 2530 nM
- IC50 (second compound 3.16 µM): 1770 nM
- IC50 (second compound 10 µM): 709 nM
- viability, T/C [1]: 75.2%
- viability, T/C [2]: 81.5%
- viability, T/C [3]: 79.3%
- viability, T/C [4]: 68.8%
- viability, T/C [5]: 60.6%
- viability, T/C [6]: 48.4%
- viability, T/C [7]: 78.7%
- viability, T/C [8]: 73.9%
- viability, T/C [9]: 70.2%
- viability, T/C [10]: 73.8%
- viability, T/C [11]: 69.6%
- viability, T/C [12]: 55.1%
- viability, T/C [13]: 74.4%
- viability, T/C [14]: 87.7%
- viability, T/C [15]: 83.9%
- viability, T/C [16]: 71%
- viability, T/C [17]: 55.1%
- viability, T/C [18]: 39.3%
- viability, T/C [19]: 73.6%
- viability, T/C [20]: 77.9%
- viability, T/C [21]: 75.2%
- viability, T/C [22]: 63%
- viability, T/C [23]: 47.4%
- viability, T/C [24]: 33.7%
- viability, T/C [25]: 69.2%
- viability, T/C [26]: 69.3%
- viability, T/C [27]: 70%
- viability, T/C [28]: 56.2%
- viability, T/C [29]: 43.1%
- viability, T/C [30]: 34%
- viability, T/C [31]: 65%
- viability, T/C [32]: 58.1%
- viability, T/C [33]: 70%
- viability, T/C [34]: 43.9%
- viability, T/C [35]: 43.2%
- viability, T/C [36]: 30.9%

SMILES: CC(=O)O[C@H]1C(=O)[C@@]2(C)[C@H]([C@H](OC(=O)c3ccccc3)[C@]3(O)C[C@H](OC(=O)[C@H](O)[C@@H](NC(=O)c4ccccc4)c4ccccc4)C(C)=C1C3(C)C)[C@]1(OC(C)=O)CO[C@@H]1C[C@@H]2O + Cc1[nH]c2ccc(F)cc2c1-c1nc2c3cccnc3c3ncccc3c2[nH]1
- IC50 (second compound 0.0316 µM): > 10000 nM
- IC50 (second compound 0.1 µM): > 10000 nM
- IC50 (second compound 0.316 µM): > 10000 nM
- IC50 (second compound 1 µM): 341 nM
- IC50 (second compound 3.16 µM): < 31.6 nM
- IC50 (second compound 10 µM): < 31.6 nM
- viability, T/C [1]: 82.4%
- viability, T/C [2]: 72%
- viability, T/C [3]: 68.8%
- viability, T/C [4]: 81.9%
- viability, T/C [5]: 100%
- viability, T/C [6]: 70.9%
- viability, T/C [7]: 66.3%
- viability, T/C [8]: 77.2%
- viability, T/C [9]: 68.7%
- viability, T/C [10]: 77.3%
- viability, T/C [11]: 64.2%
- viability, T/C [12]: 64.9%
- viability, T/C [13]: 72.6%
- viability, T/C [14]: 65.4%
- viability, T/C [15]: 57.1%
- viability, T/C [16]: 53.5%
- viability, T/C [17]: 62.4%
- viability, T/C [18]: 47.8%
- viability, T/C [19]: 49.7%
- viability, T/C [20]: 57%
- viability, T/C [21]: 55.4%
- viability, T/C [22]: 39.2%
- viability, T/C [23]: 45.8%
- viability, T/C [24]: 51.8%
- viability, T/C [25]: 20.4%
- viability, T/C [26]: 14.5%
- viability, T/C [27]: 15.4%
- viability, T/C [28]: 12.3%
- viability, T/C [29]: 13.6%
- viability, T/C [30]: 12.1%
- viability, T/C [31]: 42.2%
- viability, T/C [32]: 40.1%
- viability, T/C [33]: 38.5%
- viability, T/C [34]: 28.1%
- viability, T/C [35]: 30.4%
- viability, T/C [36]: 33.5%

SMILES: O=C(c1cc(Cc2n[nH]c(=O)c3ccccc23)ccc1F)N1CCN(C(=O)C2CC2)CC1 + Cc1[nH]c2ccc(F)cc2c1-c1nc2c3cccnc3c3ncccc3c2[nH]1
- IC50 (second compound 0.0316 µM): > 10000 nM
- IC50 (second compound 0.1 µM): > 10000 nM
- IC50 (second compound 0.316 µM): > 10000 nM
- IC50 (second compound 1 µM): > 10000 nM
- IC50 (second compound 3.16 µM): > 10000 nM
- IC50 (second compound 10 µM): < 31.6 nM
- viability, T/C [1]: 108%
- viability, T/C [2]: 95.4%
- viability, T/C [3]: 92.5%
- viability, T/C [4]: 73.3%
- viability, T/C [5]: 95.1%
- viability, T/C [6]: 83.4%
- viability, T/C [7]: 83.6%
- viability, T/C [8]: 90.4%
- viability, T/C [9]: 92%
- viability, T/C [10]: 90.4%
- viability, T/C [11]: 91.6%
- viability, T/C [12]: 101%
- viability, T/C [13]: 75.4%
- viability, T/C [14]: 86.2%
- viability, T/C [15]: 85%
- viability, T/C [16]: 91.1%
- viability, T/C [17]: 85.9%
- viability, T/C [18]: 81.4%
- viability, T/C [19]: 69%
- viability, T/C [20]: 79.5%
- viability, T/C [21]: 77.4%
- viability, T/C [22]: 69.7%
- viability, T/C [23]: 64.4%
- viability, T/C [24]: 83.2%
- viability, T/C [25]: 51.5%
- viability, T/C [26]: 64.2%
- viability, T/C [27]: 55.7%
- viability, T/C [28]: 55%
- viability, T/C [29]: 56.3%
- viability, T/C [30]: 59.6%
- viability, T/C [31]: 48.8%
- viability, T/C [32]: 50.9%
- viability, T/C [33]: 44.7%
- viability, T/C [34]: 50.3%
- viability, T/C [35]: 55%
- viability, T/C [36]: 51%

SMILES: CCc1c2c(nc3ccc(O)cc13)-c1cc3c(c(=O)n1C2)COC(=O)[C@]3(O)CC + Cc1[nH]c2ccc(F)cc2c1-c1nc2c3cccnc3c3ncccc3c2[nH]1
- IC50 (second compound 0.0316 µM): > 316 nM
- IC50 (second compound 0.1 µM): > 316 nM
- IC50 (second compound 0.316 µM): > 316 nM
- IC50 (second compound 1 µM): > 316 nM
- IC50 (second compound 3.16 µM): > 316 nM
- IC50 (second compound 10 µM): < 0.999 nM
- viability, T/C (second compound 0.0316 µM, first compound 0.000999 µM): 104%
- viability, T/C (second compound 0.0316 µM, first compound 0.00316 µM): 72.7%
- viability, T/C (second compound 0.0316 µM, first compound 0.00999 µM): 85.2%
- viability, T/C [1]: 103%
- viability, T/C (second compound 0.0316 µM, first compound 0.0999 µM): 106%
- viability, T/C [3]: 94.2%
- viability, T/C (second compound 0.1 µM, first compound 0.000999 µM): 76.3%
- viability, T/C (second compound 0.1 µM, first compound 0.00316 µM): 89.8%
- viability, T/C (second compound 0.1 µM, first compound 0.00999 µM): 79.5%
- viability, T/C [7]: 97.5%
- viability, T/C (second compound 0.1 µM, first compound 0.0999 µM): 111%
- viability, T/C [9]: 90.4%
- viability, T/C (second compound 0.316 µM, first compound 0.000999 µM): 78.8%
- viability, T/C (second compound 0.316 µM, first compound 0.00316 µM): 82.6%
- viability, T/C (second compound 0.316 µM, first compound 0.00999 µM): 78.1%
- viability, T/C [13]: 94.1%
- viability, T/C (second compound 0.316 µM, first compound 0.0999 µM): 97.2%
- viability, T/C [15]: 88.1%
- viability, T/C (second compound 1 µM, first compound 0.000999 µM): 62.8%
- viability, T/C (second compound 1 µM, first compound 0.00316 µM): 82.7%
- viability, T/C (second compound 1 µM, first compound 0.00999 µM): 80.5%
- viability, T/C [19]: 81.6%
- viability, T/C (second compound 1 µM, first compound 0.0999 µM): 90.1%
- viability, T/C [21]: 73.5%
- viability, T/C (second compound 3.16 µM, first compound 0.000999 µM): 58.7%
- viability, T/C (second compound 3.16 µM, first compound 0.00316 µM): 57.3%
- viability, T/C (second compound 3.16 µM, first compound 0.00999 µM): 54%
- viability, T/C [25]: 62.3%
- viability, T/C (second compound 3.16 µM, first compound 0.0999 µM): 67.3%
- viability, T/C [27]: 67.3%
- viability, T/C (second compound 10 µM, first compound 0.000999 µM): 39.8%
- viability, T/C (second compound 10 µM, first compound 0.00316 µM): 41.1%
- viability, T/C (second compound 10 µM, first compound 0.00999 µM): 56.8%
- viability, T/C [31]: 62.2%
- viability, T/C (second compound 10 µM, first compound 0.0999 µM): 55.4%
- viability, T/C [33]: 54.8%
